# Measured values reported in patent US12679878B2, “CRF2 receptor agonists and their use in therapy” (SANOFI, priority 2020, dated 2026).
# Starred links: 1 amine or outer side, 2 acyl side, 3 side chain; linkers in the order of their positions; H or OH if unused. Non-standard residues stand in square brackets, D forms with d. Residues, ends and D or L forms follow the SMILES beside them. Groups on a side chain read outwards from the residue. *: point of attachment. C18 diacid = O=C(O)CCCCCCCCCCCCCCCCC(=O)*; C16 diacid = O=C(O)CCCCCCCCCCCCCCC(=O)*; γGlu = O=C(O)[C@H](CCC(=O)[*:2])N[*:1]; Palmitoyl = CCCCCCCCCCCCCCCC(=O)*; AEEA = NCCOCCOCC(=O)O; Aib = CC(C)(N)C(=O)O
# Assays:
# [1] = Effect on blood pressure, telemetry (Example 17); assay type: in vivo; conditions: Sprague Dawley rats, 0.1 mg/kg SC
# Experimental: The effect of the compounds on blood pressure was determined in telemetry studies in Sprague Dawley rats at a dosage of 0.1 mg/kg SC.
# The rats were previously implanted with a telemetry device (DSI, Saint-Paul, USA, HD-S10, HD-S11 or HD S21) and allowed to recover for a minimum period of 2 weeks before treatment with vehicle or the different peptides. Blood pressure (BP) was recorded through a catheter inserted into the abdominal aorta. The device body was placed in the abdomen. At the end of surgery, animals were placed in individual cages until the end of the study.
# Pressure signals were recorded for one hour before the treatment (basal period). Thereafter, the subcutaneous administration of the test compound or its vehicle was performed, under continuous recording of the signal over a 48-hour period. Data acquisition was performed using Hem 4.3 acquisition software (Notocord®, Le Pecq, France) connected to the telemetry device. Hemodynamic parameters were recorded during a […] before treatment and every 4-hour period following subcutaneous administration over 48 hours.
# Investigated parameters (calculated from BP signal) were Heart Rate (HR) in beats per minute (bpm), Diastolic and Systolic Blood Pressure (DBP) in mmHg, and Mean Blood Pressure (MBP) in mmHg.
# Data from Hem were manipulated using Microsoft Excel®. For each parameter, a basal value was determined as the average calculated over a 1-hour period during the pre-treatment sequence, and the values post treatment were calculated over 4-hour periods ([0-4], [4-8], [8-12], [12-16], [16-20], [20-24], [24-28], [32-36], [36-40], [40-44] and [44-48] hours) covering the 48-hour period following administration.
# Representative data are presented in Table 15 below, in which “n” represents the number of animals for which individual values were obtained and “Duration” indicates the last time point for which a significant effect on BP was still seen: Table 15
# human CRF2α receptor = target: T1, human CRF2α receptor (Homo sapiens, UniProt Q13324); assay: cAMP agonism at human CRF2α receptor in TeloHEAC cells, FA modified peptides (Example 19.9); assay type: cell-based; conditions: 0% HSA, relative to urocortin 2
# T1 construct: expressed in transfected cells; host or cells: TeloHEAC
# T1 sequence (Q13324 1-411): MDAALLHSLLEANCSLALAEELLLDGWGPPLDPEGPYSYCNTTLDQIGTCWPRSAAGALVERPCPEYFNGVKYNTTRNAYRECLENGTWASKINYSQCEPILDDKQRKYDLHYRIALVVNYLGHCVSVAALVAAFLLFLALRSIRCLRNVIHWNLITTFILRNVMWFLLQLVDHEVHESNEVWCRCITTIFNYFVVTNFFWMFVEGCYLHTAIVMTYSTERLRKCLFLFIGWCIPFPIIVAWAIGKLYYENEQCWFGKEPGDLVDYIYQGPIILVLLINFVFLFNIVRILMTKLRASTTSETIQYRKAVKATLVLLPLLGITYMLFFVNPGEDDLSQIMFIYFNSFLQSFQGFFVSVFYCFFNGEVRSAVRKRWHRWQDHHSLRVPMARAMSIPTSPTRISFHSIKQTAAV
# Outline: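 Efficacy and EC50 are referenced to 100 nM urocortin 2 as 100%, with cAMP measured as the 665/620 nm HTRF ratio after 1 h at room temperature. Compounds (0.5 mM DMSO stock, 16 twofold dilutions) acted 30 min at 37 °C on CRF2α-expressing TeloHEAC cells, buffer containing IBMX and 0% or 0.2% HSA.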
# CRF1R receptor = target: T2, CRF1R receptor (Homo sapiens, UniProt P34998); assay: cAMP activity at anti-target CRF1R, CHO-K1 cell line clone 2 (Example 19.10); assay type: cell-based; conditions: for CRF1/CRF2 ratio: ratio of CRF1 EC50 to CRF2 EC50
# T2 construct: host or cells: CHO-K1 clone 2
# T2 sequence (P34998 24-415): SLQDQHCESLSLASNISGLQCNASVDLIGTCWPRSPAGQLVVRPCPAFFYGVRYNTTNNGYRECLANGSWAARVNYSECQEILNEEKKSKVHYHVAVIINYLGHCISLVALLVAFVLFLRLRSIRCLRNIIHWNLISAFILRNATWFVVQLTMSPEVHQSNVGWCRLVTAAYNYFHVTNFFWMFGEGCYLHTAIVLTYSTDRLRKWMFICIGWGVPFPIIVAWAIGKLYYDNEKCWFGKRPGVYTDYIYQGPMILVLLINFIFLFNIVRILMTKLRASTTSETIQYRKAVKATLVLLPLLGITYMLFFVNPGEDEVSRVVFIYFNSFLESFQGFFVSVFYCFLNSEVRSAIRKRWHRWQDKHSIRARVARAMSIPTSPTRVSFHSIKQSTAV
# Outline: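 A CRF1R-overexpressing CHO-K1 line (clone 2) was grown in F12/10% FBS/G418 and frozen in aliquots before use. The cAMP assay followed the preceding procedure, with 100% activation defined by Sauvagine at 100 nM.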
Compound,Duration (h): last time point for which a significant effect on BP was still seen [1] [h],Effect on Systolic Pressure % change from baseline 8 h ([1]; 8 h) [%],Effect on Systolic Pressure % change from baseline 24 h ([1]; 24 h) [%],EC50 (human CRF2α receptor) [nM],CRF1/CRF2 ratio (CRF1R receptor),"EC50 (CRF1R receptor; 0% HSA, CRF1R CHO-K1 clone 2, read-out: EC50 [nM] 0% HSA) [nM]","Emax (CRF1R receptor; 100% = Sauvagine at 100 nM, CRF1R CHO-K1 clone 2) [%]"
"CC[C@H](C)[C@H](N)C(=O)N[C@H](C(=O)N[C@@H](CC(C)C)C(=O)N[C@@H](CO)C(=O)N[C@@H](CC(C)C)C(=O)N[C@@H](CC(=O)O)C(=O)N[C@@H](C(=O)N1CCC[C@H]1C(=O)N[C@H](C(=O)N[C@@H](CCCCN)C(=O)N[C@@H](CC(C)C)C(=O)N[C@@H](CCCCNC(=O)COCCOCCNC(=O)COCCOCCNC(=O)CC[C@H](NC(=O)CCCCCCCCCCCCCCCCC(=O)O)C(=O)O)C(=O)N[C@@H](CCC(N)=O)C(=O)N[C@H](C(=O)N[C@@H](CC(C)C)C(=O)N[C@@H](CC(C)C)C(=O)N[C@@H](CCCCN)C(=O)N[C@@H](CCC(N)=O)C(=O)N[C@@H](CCC(=O)O)C(=O)N[C@@H](CCCNC(=N)N)C(=O)N[C@@H](CCC(N)=O)C(=O)N[C@@H](CCCCN)C(=O)NC(C)(C)C(=O)N[C@@H](CCC(N)=O)C(=O)N[C@@H](CCCNC(=N)N)C(=O)N[C@@H](CCC(=O)O)C(=O)N[C@@H](CCC(N)=O)C(=O)N[C@@H](C)C(=O)N[C@@H](CCC(=O)O)C(=O)N[C@@H](CCCCN)C(=O)N[C@@H](CC(N)=O)C(=O)N[C@@H](CCCCN)C(=O)N[C@@H](CCC(N)=O)C(=O)N[C@H](C(=O)N[C@@H](CC(C)C)C(=O)N[C@@H](C)C(=O)N[C@@H](CCC(N)=O)C(=O)N[C@H](C(N)=O)C(C)C)[C@@H](C)CC)[C@@H](C)CC)[C@@H](C)CC)C(C)C)C(C)C [SEQ ID NO: 130, IVLSLDvPIKLK*QILLKQERQKAibQREQAEKNKQILAQV-NH2] (H-IVLSLD[dV]PIKLK([AEEA-AEEA-γGlu-C18 diacid])QILLKQERQK[Aib]QREQAEKNKQILAQV-NH2)",30,−15.2,−9.9,,,,
CCCCCCCCCCCCCCCC(=O)N[C@@H](CCC(=O)NCCCC[C@H](NC(=O)[C@H](CC(C)C)NC(=O)[C@H](CCCCN)NC(=O)[C@@H](NC(=O)[C@@H]1CCCN1C(=O)[C@H](NC(=O)[C@H](CC(=O)O)NC(=O)[C@H](CC(C)C)NC(=O)[C@H](CO)NC(=O)[C@H](CC(C)C)NC(=O)[C@@H](NC(=O)[C@@H](N)[C@@H](C)CC)C(C)C)C(C)C)[C@@H](C)CC)C(=O)N[C@@H](CCC(N)=O)C(=O)N[C@H](C(=O)N[C@@H](CC(C)C)C(=O)N[C@@H](CC(C)C)C(=O)N[C@@H](CCCCN)C(=O)N[C@@H](CCC(N)=O)C(=O)N[C@@H](C)C(=O)N[C@@H](CCCNC(=N)N)C(=O)N[C@@H](CCC(N)=O)C(=O)N[C@@H](CCCCN)C(=O)NC(C)(C)C(=O)N[C@@H](CCC(N)=O)C(=O)N[C@@H](CCCNC(=N)N)C(=O)N[C@@H](C)C(=O)N[C@@H](CCC(N)=O)C(=O)N[C@@H](C)C(=O)N[C@@H](CCC(=O)O)C(=O)N[C@@H](CCCCN)C(=O)N[C@@H](CC(N)=O)C(=O)N[C@@H](CCCCN)C(=O)N[C@@H](CCCNC(=N)N)C(=O)N[C@H](C(=O)N[C@@H](CC(C)C)C(=O)N[C@@H](CCC(=O)O)C(=O)N[C@@H](CCCNC(=N)N)C(=O)N[C@H](C(N)=O)C(C)C)[C@@H](C)CC)[C@@H](C)CC)C(=O)O [compound 219] (H-IVLSLD[dV]PIKLK([γGlu-Palmitoyl])QILLKQARQK[Aib]QRAQAEKNKRILERV-NH2),,,,5.98,2,,
CCCCCCCCCCCCCCCC(=O)N[C@@H](CCC(=O)NCCCC[C@H](NC(=O)[C@H](CC(C)C)NC(=O)CNC(=O)[C@@H](NC(=O)[C@@H]1CCCN1C(=O)[C@H](NC(=O)[C@H](CC(=O)O)NC(=O)[C@H](CC(C)C)NC(=O)[C@H](CO)NC(=O)[C@H](CC(C)C)NC(=O)[C@@H](NC(=O)[C@@H](N)[C@@H](C)CC)C(C)C)C(C)C)[C@@H](C)CC)C(=O)N[C@@H](CCC(N)=O)C(=O)N[C@H](C(=O)N[C@@H](CC(C)C)C(=O)N[C@@H](CC(C)C)C(=O)N[C@@H](CCCCN)C(=O)N[C@@H](CCC(N)=O)C(=O)N[C@@H](CCC(=O)O)C(=O)N[C@@H](CCCNC(=N)N)C(=O)N[C@@H](CCC(N)=O)C(=O)N[C@@H](CCCCN)C(=O)N[C@@H](CCCCN)C(=O)NC(C)(C)C(=O)N[C@@H](CCCNC(=N)N)C(=O)N[C@@H](CCC(N)=O)C(=O)N[C@@H](CCC(N)=O)C(=O)N[C@@H](C)C(=O)N[C@@H](CCC(=O)O)C(=O)N[C@H](C(=O)N[C@@H](CC(N)=O)C(=O)N[C@@H](CCCCN)C(=O)N[C@@H](CCCNC(=N)N)C(=O)N[C@H](C(=O)N[C@@H](CC(C)C)C(=O)N[C@@H](CCC(=O)O)C(=O)N[C@@H](CCCNC(=N)N)C(=O)N[C@H](C(N)=O)C(C)C)[C@@H](C)CC)[C@@H](C)O)[C@@H](C)CC)C(=O)O [compound 220] (H-IVLSLD[dV]PIGLK([γGlu-Palmitoyl])QILLKQERQKK[Aib]RQQAETNKRILERV-NH2; N-terminus assumed),,,,1.48,6,,
CC[C@H](C)[C@H](N)C(=O)N[C@H](C(=O)N[C@@H](CC(C)C)C(=O)N[C@@H](CO)C(=O)N[C@@H](CC(C)C)C(=O)N[C@@H](CC(=O)O)C(=O)N[C@@H](C(=O)N1CCC[C@H]1C(=O)N[C@H](C(=O)N[C@@H](CCCCN)C(=O)N[C@@H](CC(C)C)C(=O)N[C@@H](CCCCNC(=O)CC[C@H](NC(=O)CCCCCCCCCCCCCCC(=O)O)C(=O)O)C(=O)N[C@@H](CCC(N)=O)C(=O)N[C@@H](CCCCN)C(=O)N[C@@H](CC(C)C)C(=O)N[C@@H](CC(C)C)C(=O)N[C@@H](CCCCN)C(=O)N[C@@H](CCC(N)=O)C(=O)N[C@@H](CCC(=O)O)C(=O)N[C@@H](CCCNC(=N)N)C(=O)N[C@@H](CCC(N)=O)C(=O)N[C@@H](CCCNC(=N)N)C(=O)N[C@@H](CCCCN)C(=O)N[C@@H](CCC(=O)O)C(=O)N[C@@H](CCCNC(=N)N)C(=O)N[C@@H](CCC(=O)O)C(=O)N[C@@H](CCC(N)=O)C(=O)N[C@@H](C)C(=O)N[C@@H](CCC(=O)O)C(=O)N[C@@H](CCCCN)C(=O)N[C@@H](CC(N)=O)C(=O)N[C@@H](C)C(=O)N[C@@H](CCCNC(=N)N)C(=O)N[C@H](C(=O)N[C@@H](CC(C)C)C(=O)N[C@@H](C)C(=O)N[C@@H](CCCNC(=N)N)C(=O)N[C@H](C(N)=O)C(C)C)[C@@H](C)CC)[C@@H](C)O)C(C)C)C(C)C [compound 221] (H-IVLSLD[dV]PTKLK([γGlu-C16 diacid])QKLLKQERQRKEREQAEKNARILARV-NH2; N-terminus assumed),,,,2.71,,> 100,3.2
